Laboratory results reported in the NIST ThermoML archive (doi:10.1016/j.jct.2016.03.034).

Experiment: xn = mol fraction of the nth substance listed
Details: 100 kPa, Liquid; for viscosity: Capillary tube (Ostwald / Ubbelohde) method; for mass density: Vibrating tube method

O=C1CCCO1 [γ-butyrolactone] + CCn1cc[n+](C)c1.O=S(=O)([N-]S(=O)(=O)C(F)(F)F)C(F)(F)F
Details	mass density [kg/m3]	viscosity [mPa·s]
293.15 K, x2 = 0	1129.49	1.86
293.15 K, x2 = 0.05	1189.18	2.57
293.15 K, x2 = 0.0995	–	3.12
293.15 K, x2 = 0.0996	1236.95	–
293.15 K, x2 = 0.1502	1277.22	3.83
293.15 K, x2 = 0.2006	1310.83	4.63
293.15 K, x2 = 0.3	–	6.64
293.15 K, x2 = 0.3001	1363.28	–
293.15 K, x2 = 0.4	–	9.2
293.15 K, x2 = 0.4021	1403.82	–
293.15 K, x2 = 0.4899	–	11.95
293.15 K, x2 = 0.4992	1434.01	–
293.15 K, x2 = 0.6103	1461.49	16.41
293.15 K, x2 = 0.6912	1478	–
293.15 K, x2 = 0.6995	–	20.33
293.15 K, x2 = 0.7817	1493.78	–
293.15 K, x2 = 0.7927	–	24.88
293.15 K, x2 = 0.8991	1510.97	30.67
293.15 K, x2 = 0.9532	–	34.26
298.15 K, x2 = 0	1124.59	1.71
298.15 K, x2 = 0.05	1184.22	2.41
298.15 K, x2 = 0.0995	–	2.94
298.15 K, x2 = 0.0996	1231.94	–
298.15 K, x2 = 0.1502	1272.16	3.61
298.15 K, x2 = 0.2006	1305.75	4.35
298.15 K, x2 = 0.3	–	6.16
298.15 K, x2 = 0.3001	1358.16	–
298.15 K, x2 = 0.4	–	8.37
298.15 K, x2 = 0.4021	1398.7	–
298.15 K, x2 = 0.4899	–	10.72
298.15 K, x2 = 0.4992	1428.88	–
298.15 K, x2 = 0.6103	1456.36	14.47
298.15 K, x2 = 0.6912	1472.86	–
298.15 K, x2 = 0.6995	–	17.71
298.15 K, x2 = 0.7817	1488.64	–
298.15 K, x2 = 0.7927	–	21.48
298.15 K, x2 = 0.8991	1505.84	26.32
298.15 K, x2 = 0.9532	–	29.01
303.15 K, x2 = 0	1119.68	1.58
303.15 K, x2 = 0.05	1179.23	2.24
303.15 K, x2 = 0.0995	–	2.71
303.15 K, x2 = 0.0996	1226.88	–
303.15 K, x2 = 0.1502	1267.09	3.3
303.15 K, x2 = 0.2006	1300.66	3.97
303.15 K, x2 = 0.3	–	5.57
303.15 K, x2 = 0.3001	1353.03	–
303.15 K, x2 = 0.4	–	7.49
303.15 K, x2 = 0.4021	1393.55	–
303.15 K, x2 = 0.4899	–	9.49
303.15 K, x2 = 0.4992	1423.73	–
303.15 K, x2 = 0.6103	1451.19	12.66
303.15 K, x2 = 0.6912	1467.67	–
303.15 K, x2 = 0.6995	–	15.38
303.15 K, x2 = 0.7817	1483.46	–
303.15 K, x2 = 0.7927	–	18.53
303.15 K, x2 = 0.8991	1500.66	22.48
303.15 K, x2 = 0.9532	–	24.66
308.15 K, x2 = 0	1114.78	1.47
308.15 K, x2 = 0.05	1174.26	2.07
308.15 K, x2 = 0.0995	–	2.48
308.15 K, x2 = 0.0996	1221.85	–
308.15 K, x2 = 0.1502	1262.03	3.03
308.15 K, x2 = 0.2006	1295.56	3.66
308.15 K, x2 = 0.3	–	5.09
308.15 K, x2 = 0.3001	1347.9	–
308.15 K, x2 = 0.4	–	6.72
308.15 K, x2 = 0.4021	1388.4	–
308.15 K, x2 = 0.4899	–	8.39
308.15 K, x2 = 0.4992	1418.56	–
308.15 K, x2 = 0.6103	1446.01	11.08
308.15 K, x2 = 0.6912	1462.49	–
308.15 K, x2 = 0.6995	–	13.34
308.15 K, x2 = 0.7817	1478.28	–
308.15 K, x2 = 0.7927	–	15.98
308.15 K, x2 = 0.8991	1495.47	19.26
308.15 K, x2 = 0.9532	–	21.15
313.15 K, x2 = 0	1109.87	1.37
313.15 K, x2 = 0.05	1169.29	1.92
313.15 K, x2 = 0.0995	–	2.32
313.15 K, x2 = 0.0996	1216.89	–
313.15 K, x2 = 0.1502	1257.03	2.81
313.15 K, x2 = 0.2006	1290.56	3.37
313.15 K, x2 = 0.3	–	4.63
313.15 K, x2 = 0.3001	1342.87	–
313.15 K, x2 = 0.4	–	6.09
313.15 K, x2 = 0.4021	1383.33	–
313.15 K, x2 = 0.4899	–	7.55
313.15 K, x2 = 0.4992	1413.46	–
313.15 K, x2 = 0.6103	1440.89	9.84
313.15 K, x2 = 0.6912	1457.37	–
313.15 K, x2 = 0.6995	–	11.77
313.15 K, x2 = 0.7817	1473.14	–
313.15 K, x2 = 0.7927	–	13.93
313.15 K, x2 = 0.8991	1490.3	16.67
313.15 K, x2 = 0.9532	–	18.26
318.15 K, x2 = 0	1104.96	1.28
318.15 K, x2 = 0.05	1164.33	1.76
318.15 K, x2 = 0.0995	–	2.12
318.15 K, x2 = 0.0996	1211.89	–
318.15 K, x2 = 0.1502	1252	2.57
318.15 K, x2 = 0.2006	1285.51	3.07
318.15 K, x2 = 0.3	–	4.15
318.15 K, x2 = 0.3001	1337.8	–
318.15 K, x2 = 0.4	–	5.46
318.15 K, x2 = 0.4021	1378.25	–
318.15 K, x2 = 0.4899	–	6.65
318.15 K, x2 = 0.4992	1408.36	–
318.15 K, x2 = 0.6103	1435.77	8.6
318.15 K, x2 = 0.6912	1452.23	–
318.15 K, x2 = 0.6995	–	10.2
318.15 K, x2 = 0.7817	1467.99	–
318.15 K, x2 = 0.7927	–	12.07
318.15 K, x2 = 0.8991	1485.13	14.42
318.15 K, x2 = 0.9532	–	15.79
323.15 K, x2 = 0	1100.05	1.2
323.15 K, x2 = 0.05	1159.37	1.66
323.15 K, x2 = 0.0995	–	2.02
323.15 K, x2 = 0.0996	1206.9	–
323.15 K, x2 = 0.1502	1247.02	2.42
323.15 K, x2 = 0.2006	1280.5	2.89
323.15 K, x2 = 0.3	–	3.89
323.15 K, x2 = 0.3001	1332.77	–
323.15 K, x2 = 0.4	–	4.97
323.15 K, x2 = 0.4021	1373.17	–
323.15 K, x2 = 0.4899	–	6.15
323.15 K, x2 = 0.4992	1403.26	–
323.15 K, x2 = 0.6103	1430.64	7.81
323.15 K, x2 = 0.6912	1447.09	–
323.15 K, x2 = 0.6995	–	9.19
323.15 K, x2 = 0.7817	1462.82	–
323.15 K, x2 = 0.7927	–	10.76
323.15 K, x2 = 0.8991	1479.92	12.78
323.15 K, x2 = 0.9532	–	13.93
